molecular target: T1, purified human HDAC6 (Homo sapiens, UniProt Q9UBN7); assay: HDAC6 Enzyme Assay; type: biochemical; details: compound concentration 0.37 μM, read-out: Percent Inhibition
T1 construct: purchased BPS Bioscience 5006
T1 sequence (Q9UBN7 1-1215): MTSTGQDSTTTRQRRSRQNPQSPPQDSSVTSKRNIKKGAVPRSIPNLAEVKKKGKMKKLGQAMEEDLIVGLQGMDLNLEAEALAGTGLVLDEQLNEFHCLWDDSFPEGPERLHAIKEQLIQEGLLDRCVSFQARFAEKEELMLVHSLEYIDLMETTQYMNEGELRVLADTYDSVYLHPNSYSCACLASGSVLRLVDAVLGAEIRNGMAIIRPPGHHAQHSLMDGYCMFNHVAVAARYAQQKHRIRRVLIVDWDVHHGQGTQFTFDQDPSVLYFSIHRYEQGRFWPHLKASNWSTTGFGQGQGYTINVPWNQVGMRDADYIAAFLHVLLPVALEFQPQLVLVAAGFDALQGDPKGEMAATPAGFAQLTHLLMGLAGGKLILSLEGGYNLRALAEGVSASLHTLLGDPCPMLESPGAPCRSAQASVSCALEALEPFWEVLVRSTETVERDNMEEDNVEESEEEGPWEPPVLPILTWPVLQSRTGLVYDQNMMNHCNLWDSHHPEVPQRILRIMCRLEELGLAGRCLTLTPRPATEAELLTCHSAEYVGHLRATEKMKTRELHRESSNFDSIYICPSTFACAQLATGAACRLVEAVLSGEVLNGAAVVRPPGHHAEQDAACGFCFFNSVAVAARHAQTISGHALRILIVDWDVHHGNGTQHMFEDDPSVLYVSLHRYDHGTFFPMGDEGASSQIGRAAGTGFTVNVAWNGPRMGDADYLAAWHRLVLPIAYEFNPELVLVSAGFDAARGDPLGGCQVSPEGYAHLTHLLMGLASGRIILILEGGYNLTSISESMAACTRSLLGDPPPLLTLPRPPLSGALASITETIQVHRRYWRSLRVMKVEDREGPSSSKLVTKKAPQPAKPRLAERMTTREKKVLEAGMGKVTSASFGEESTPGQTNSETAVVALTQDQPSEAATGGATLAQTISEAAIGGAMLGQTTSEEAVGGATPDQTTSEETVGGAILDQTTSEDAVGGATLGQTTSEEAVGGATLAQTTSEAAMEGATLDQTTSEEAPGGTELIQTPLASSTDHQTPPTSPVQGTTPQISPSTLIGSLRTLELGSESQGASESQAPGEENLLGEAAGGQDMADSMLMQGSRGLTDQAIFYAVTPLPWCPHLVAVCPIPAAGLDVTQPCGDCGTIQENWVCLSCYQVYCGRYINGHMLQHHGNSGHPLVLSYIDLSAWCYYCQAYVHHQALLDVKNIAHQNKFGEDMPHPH
Protocol: To measure the inhibition of HDAC6 activity, purified human HDAC6 (BPS Bioscience; Cat. No. 5006) is incubated with substrate Ac-Arg-Gly-Lys(Ac)-AMC peptide (Bachem Biosciences; Cat. No. I-1925) for 1 hour at 30° C. in the presence of test compounds or vehicle DMSO control. The reaction is stopped with the HDAC inhibitor trichostatin A (Sigma; Cat. No. T8552) and the amount of Arg-Gly-Lys-AMC generated is quantitated by digestion with trypsin (Sigma; Cat. No. T1426) and subsequent measurement of the amount of AMC released using a fluorescent plate reader (Pherastar; BMG Technologies) set at Ex 340 nm and Em 460 nm. Concentration response curves are generated by calculating the fluorescence increase in test compound-treated samples relative to DMSO-treated controls, and percentage inhibition values at a single concentration or enzyme inhibition (IC50) values are determined from those curves. One skilled in the art will appreciate that the values generated either as percentage inhibition at a single concentration or IC50 values are subject to experimental variation.

Q: `CC(C)NCCn1cnc2ccc(C(=O)NO)cc2c1=O` [Compound I-294, N-hydroxy-3-[2-(isopropylamino)ethyl]-4-oxo-3,4-dihydroquinazoline-6-carboxamide] was tested. Which inhibition at 0.37 µM did it give?
A: 56%

Q: Which inhibition at 0.37 µM does the source give for `O=C(NO)c1ccc2ccn(CCN(C(=O)C3CC3)c3cccc(-n4cccn4)c3)c(=O)c2c1` [Compound I-45, 2-(2-{(cyclopropylcarbonyl)[3-(1H-pyrazol-1-yl)phenyl]amino}ethyl)-N-hydroxy-1-oxo-1,2-dihydroisoquinoline-7-carboxamide] here?
A: 89.6%

Q: For `CC1(C(=O)Nc2cccc(Cn3ccc4ccc(C(=O)NO)cc4c3=O)c2)CCNCC1` [Compound I-215, N-hydroxy-2-(3-{[(4-methylpiperidin-4-yl)carbonyl]amino}benzyl)-1-oxo-1,2-dihydroisoquinoline-7-carboxamide], which inhibition at 0.37 µM is on record?
A: 100%

Q: How did the inhibition at 0.37 µM turn out when `CC(C)c1ccc(-c2cccc(CCn3cnc4ccc(C(=O)NO)cc4c3=O)c2)cc1` [Compound I-297, N-hydroxy-3-[2-(4′-isopropylbiphenyl-3-yl)ethyl]-4-oxo-3,4-dihydroquinazoline-6-carboxamide] was run?
A: 61.5%

Q: How did the inhibition at 0.37 µM turn out when `CC(C)(C)C(=O)Nc1ncccc1-c1cccc(Cn2cnc3ccc(C(=O)NO)cc3c2=O)c1` [Compound I-230, 3-(3-{2-[(2,2-dimethylpropanoyl)amino]pyridin-3-yl}benzyl)-N-hydroxy-4-oxo-3,4-dihydroquinazoline-6-carboxamide] was run?
A: 92.4%

Q: How did the inhibition at 0.37 µM turn out when `Cc1ccccc1Cc1nc2cc(C(=O)NO)ccc2c(=O)n1Cc1ccc(C(F)(F)F)cc1` [Compound I-35, N-hydroxy-2-(2-methylbenzyl)-4-oxo-3-[4-(trifluoromethyl)benzyl]-3,4-dihydroquinazoline-7-carboxamide] was run?
A: 66%

Q: With `O=C(NO)c1ccc2ccn(-c3cccc(-c4ccncc4)c3)c(=O)c2c1` [Compound I-328, N-hydroxy-1-oxo-2-(3-pyridin-4-ylphenyl)-1,2-dihydroisoquinoline-7-carboxamide] as the molecule, how does the inhibition at 0.37 µM read?
A: 96.7%

Q: How did the inhibition at 0.37 µM turn out when `O=C(NO)c1ccc2ncn(CCc3cccc(-c4cccc(C(=O)NC5CC5)c4)c3)c(=O)c2c1` [Compound I-291, 3-(2-{3′-[(cyclopropylamino)carbonyl]biphenyl-3-yl}ethyl)-N-hydroxy-4-oxo-3,4-dihydroquinazoline-6-carboxamide] was run?
A: 89.6%

Q: How did the inhibition at 0.37 µM turn out when `O=C(NO)c1ccc2c(=O)[nH]c(C3CCCC3)nc2c1` [Compound I-420, 2-cyclopentyl-N-hydroxy-4-oxo-3,4-dihydroquinazoline-7-carboxamide] was run?
A: 85.3%

same assay, conditions: compound concentration 0.412 μM, read-out: Percent Inhibition

Q: For `COc1ccc2ccc(OCc3nc4cc(C(=O)NO)ccc4c(=O)[nH]3)cc2c1` [Compound I-225, N-hydroxy-2-{[(7-methoxy-2-naphthyl)oxy]methyl}-4-oxo-3,4-dihydroquinazoline-7-carboxamide], which inhibition at 0.412 µM is on record?
A: 40.3%

Q: Which inhibition at 0.412 µM does the source give for `O=C(NO)c1ccc2ccn(CCc3c[nH]c4ccccc34)c(=O)c2c1` [Compound I-152, N-hydroxy-2-[2-(1H-indol-3-yl)ethyl]-1-oxo-1,2-dihydroisoquinoline-7-carboxamide] here?
A: 96%

Q: `Cc1cc(C)cc(Cn2ccc3ccc(C(=O)NO)cc3c2=O)c1` [Compound I-33, 2-(3,5-dimethylbenzyl)-N-hydroxy-1-oxo-1,2-dihydroisoquinoline-7-carboxamide] was tested. Which inhibition at 0.412 µM did it give?
A: 94.4%

Q: With `O=C(NO)c1ccc2ncn(Cc3ccc(C(F)(F)F)cc3C(F)(F)F)c(=O)c2c1` [Compound I-147, 3-[2,4-bis(trifluoromethyl)benzyl]-N-hydroxy-4-oxo-3,4-dihydroquinazoline-6-carboxamide] as the molecule, how does the inhibition at 0.412 µM read?
A: 93.2%

Q: For `O=C(NO)c1ccc2c(=O)[nH]c(C(=O)NC3CCNCC3)nc2c1` [Compound I-278, N^7-hydroxy-4-oxo-N^2-piperidin-4-yl-3,4-dihydroquinazoline-2,7-dicarboxamide], which inhibition at 0.412 µM is on record?
A: 26.2%

Q: For `O=C(Cn1cnc2ccc(C(=O)NO)cc2c1=O)c1ccc(N2CCCC2)cc1` [Compound I-273, N-hydroxy-4-oxo-3-[2-oxo-2-(4-pyrrolidin-1-ylphenyl)ethyl]-3,4-dihydroquinazoline-6-carboxamide], which inhibition at 0.412 µM is on record?
A: 85.1%

Q: For `O=C(NO)c1ccc2c(=O)n(Cc3cccc(Cl)c3)cnc2c1` [Compound I-43, 3-(3-chlorobenzyl)-N-hydroxy-4-oxo-3,4-dihydroquinazoline-7-carboxamide], which inhibition at 0.412 µM is on record?
A: 96.1%

Q: Which inhibition at 0.412 µM does the source give for `Cn1ccc2ccc(C(=O)NO)cc2c1=O` [Compound I-287, N-hydroxy-2-methyl-1-oxo-1,2-dihydroisoquinoline-7-carboxamide] here?
A: 67.6%

Q: Which inhibition at 0.412 µM does the source give for `O=C(NO)c1ccc2c(=O)[nH]c(COc3cc(Cl)cc(Cl)c3)nc2c1` [Compound I-145, 2-[(3,5-dichlorophenoxy)methyl]-N-hydroxy-4-oxo-3,4-dihydroquinazoline-7-carboxamide] here?
A: 76.7%

Q: `O=C(NO)c1ccc2ccn(Cc3ccc(-n4cncn4)cc3)c(=O)c2c1` [Compound I-223, N-hydroxy-1-oxo-2-[4-(1H-1,2,4-triazol-1-yl)benzyl]-1,2-dihydroisoquinoline-7-carboxamide] was tested. Which inhibition at 0.412 µM did it give?
A: 94.9%

Q: With `COc1ccc(-n2ccc3ccc(C(=O)NO)cc3c2=O)cc1` [Compound I-221, N-hydroxy-2-(4-methoxyphenyl)-1-oxo-1,2-dihydroisoquinoline-7-carboxamide] as the molecule, how does the inhibition at 0.412 µM read?
A: 88.1%

Q: `O=C(NO)c1ccc2ccn(CCCOc3cccc4c3CCC4)c(=O)c2c1` [Compound I-21, 2-[3-(2,3-dihydro-1H-inden-4-yloxy)propyl]-N-hydroxy-1-oxo-1,2-dihydroisoquinoline-7-carboxamide] was tested. Which inhibition at 0.412 µM did it give?
A: 96.1%

Q: How did the inhibition at 0.412 µM turn out when `Cc1ccccc1Cn1ccc2ccc(C(=O)NO)cc2c1=O` [Compound I-157, N-hydroxy-2-(2-methylbenzyl)-1-oxo-1,2-dihydroisoquinoline-7-carboxamide] was run?
A: 94.8%

Q: `CC(C)(C)OC(=O)N1CCC(NC(=O)c2nc3cc(C(=O)NO)ccc3c(=O)[nH]2)CC1` [Compound I-241, tert-butyl 4-[({7-[(hydroxyamino)carbonyl]-4-oxo-3,4-dihydroquinazolin-2-yl}carbonyl)amino]piperidine-1-carboxylate] was tested. Which inhibition at 0.412 µM did it give?
A: 29.8%

Q: With `O=C(NO)c1ccc2ccn(Cc3ccc(C(F)(F)F)cc3)c(=O)c2c1` [Compound I-75, N-hydroxy-1-oxo-2-[4-(trifluoromethyl)benzyl]-1,2-dihydroisoquinoline-7-carboxamide] as the molecule, how does the inhibition at 0.412 µM read?
A: 94.6%

Q: With `CC(C)C(Cn1ccc2ccc(C(=O)NO)cc2c1=O)c1ccccc1` (centres unmarked) [Compound I-141, N-hydroxy-2-(3-methyl-2-phenylbutyl)-1-oxo-1,2-dihydroisoquinoline-7-carboxamide] as the molecule, how does the inhibition at 0.412 µM read?
A: 90.5%

Q: How did the inhibition at 0.412 µM turn out when `O=C(NO)c1ccc2ccn(C(c3ccccc3)c3ccccc3)c(=O)c2c1` [Compound I-19, 2-(diphenylmethyl)-N-hydroxy-1-oxo-1,2-dihydroisoquinoline-7-carboxamide] was run?
A: 94.4%

Q: For `COc1ccccc1OCc1nc2cc(C(=O)NO)ccc2c(=O)[nH]1` [Compound I-248, N-hydroxy-2-[(2-methoxyphenoxy)methyl]-4-oxo-3,4-dihydroquinazoline-7-carboxamide], which inhibition at 0.412 µM is on record?
A: 90%

Q: Which inhibition at 0.412 µM does the source give for `O=C(NO)c1ccc2ccn(Cc3cccc(C(F)(F)F)c3)c(=O)c2c1` [Compound I-61, N-hydroxy-1-oxo-2-[3-(trifluoromethyl)benzyl]-1,2-dihydroisoquinoline-7-carboxamide] here?
A: 95.7%

Q: How did the inhibition at 0.412 µM turn out when `Cn1c(NCCc2ccc(Cl)cc2)nc2ccc(C(=O)NO)cc2c1=O` [Compound I-243, 2-{[2-(4-chlorophenyl)ethyl]amino}-N-hydroxy-3-methyl-4-oxo-3,4-dihydroquinazoline-6-carboxamide] was run?
A: 60.8%
